A word on the half-life: it is the time in which the quantity being followed falls by half. For orientation: IC50 means the concentration that inhibits the measured activity by half. The T/C is the result in the treated group divided by that in the control group, in per cent.

Results on two compounds are retold here after patent US12281118B2, “Nitrogen-containing fused heterocyclic SHP2 inhibitor compound, preparation method, and use” (SHANGHAI RINGENE BIOPHARMA CO., LTD., priority 2018, dated 2025).

The nature of one data set: in vitro. It counts as in vitro ADME. The note with it: 1 μM compound. Here is the method:
Metabolic stability test: Incubating 150 μL of liver microsomes (final concentration 0.5 mg/mL) containing NADPH (final concentration 1 mM), 1 μM of test compound and a positive control midazolam or a negative control atenolol for metabolic stability, terminating the reaction with acetonitrile containing tinidazole at 0 min, 5 min, 10 min and 30 min, respectively, vortexing for 10 min, centrifuging at 15,000 rmp for 10 min, and injecting 50 μL of supernatant into a 96-well plate. Calculating the metabolic stability of the compounds by determining the relative reduction of a parent drug.

The target in the next data set is SHP1 (Homo sapiens (Human), UniProt P29350). The experiment in a line: Inhibitory activity against different phosphatases. The format is biochemical. The settings on record: read-out: IC50 against phosphatase SHP1. On the procedure: (§1) Allowing compound solutions (10 μM, 3× dilution at eight gradients) of examples reacted with phosphatases such as SHP1, LMW-PTP, LYP, MKP3, PTP1B, PTPN2, PTPN6, VHR, CDC25A, PTPRR, etc. according to a similar method shown in Test Example 1 to test the inhibitory activity of the compounds on the phosphatases described above.

The target of a further data set is PTP1B (Homo sapiens (Human), UniProt P18031). In words: Inhibitory activity against different phosphatases. It counts as biochemical. The settings on record: read-out: IC50 against phosphatase PTP1B. Here is the method:
as §1

A further data set relates to MOLM 13 (leukemia cells). The experiment in a line: Cell proliferation inhibition, MTT. The format is cell-based. The note with it: Homo sapiens. Here is the method: (§2) Incubating cells such as KYSE520 (oesophageal cancer cells), H358 (lung cancer cells), Colo-205 (colorectal cancer cells), MiaPaca-2 (pancreas cancer cells), MOLM 13 (leukemia cells), NCI—H 1666 (lung cancer cells), NCI—H 508 (lung cancer), KATO III (gastric cancer), HEK 293A (normal cells), H3255 (lung cancer), H1975 (lung cancer), PC-9 (lung cancer), A549 (lung cancer), SNU16 (gastric cancer), and H1299 (lung cancer) in a 96-well plate at 100 µl/well and 20,000 cells/mL, and supplementing 10% fetal bovine serum and 1% penicillin/streptomycin sulfate. With 0.5% dimethyl sulfoxide as a blank control, treating the cells in a solution of the test compounds under 3× dilution at an initial concentration of 10 μM in eight gradients, and incubating the plate in an incubator with 5% CO2 for a certain period of time. At the end of the incubation, adding 10 μL of an MTT stock solution (5 mg/mL) to each well. Incubating the plates at 37° C. for 4 hours, and then removing the culture medium. Adding the dimethyl sulfoxide (100 μL) to each well, and then shaking well. Measuring the absorbance of a formazan product at 570 nm on a Thermo Scientific Varioskan Flash multi-mode reader. Fitting dose-response data to a three-parameter nonlinear regression model using GraphPad Prism 6.0 software to obtain IC50 values.

The test system of data set [1] is NCI-H1666 (lung cancer cells). In words: Cell proliferation inhibition, MTT. It counts as cell-based. The settings on record: Homo sapiens. Here is the method:
as §2

Data set [2] concerns KATO III (gastric cancer). The experiment in a line: Cell proliferation inhibition, MTT. The settings on record: Homo sapiens. It counts as cell-based. Here is the method: as §2
Data set [3] concerns KYSE520 (oesophageal cancer cells). The experiment in a line: Cell proliferation inhibition, MTT. The format is cell-based. The note with it: Homo sapiens, KYSE-520. Here is the method:
as §2

For the next data set, the system named is SNU16 (gastric cancer). In words: Cell proliferation inhibition, MTT. It counts as cell-based. The settings on record: Homo sapiens; SNU 16. On the procedure:
as §2

For a further data set, the system named is NCI-H 508 (lung cancer). In words: Cell proliferation inhibition, MTT. It counts as cell-based. The settings on record: Homo sapiens, NCI-H508. On the procedure:
as §2

Another data set concerns H358 (lung cancer cells). The experiment in a line: Cell proliferation inhibition, MTT. It counts as cell-based. The settings on record: Homo sapiens, NCI-H358. On the procedure:
as §2

Data set [4] relates to NCI-H358 tumor cell xenograft. The experiment in a line: Growth inhibition of xenograft in nude mice. The format is in vivo. The settings on record: orally, once daily, for 21 consecutive days. From the text: (§3) Experimental method: 1) Culturing MV 4-11/KYSE520/NCI-H358 cells in a culture medium containing 10% fetal bovine serum. Harvesting tumor cells at an exponential growth phase, and resuspending in PBS to suitable concentrations for subcutaneous tumor inoculation in nude mice. 2) Subcutaneously inoculating 2-8×10^7 tumor cells at the right back of a mouse, and resuspending the cells in PBS and matrigel (1:1); observing tumor growth regularly, and randomizing mice for administration based on tumor size and mouse body weight when tumors grow to a mean volume of ˜120 mm^3-[…]. 3) Defining the day of tumor cell inoculation as Day 0. Prior to the start of dosing, weighing all animals and measuring the tumor volume with a vernier caliper. 3) Administering orally compound of examples (prepared with water for injection containing 1% Tween80 to a desired concentration for use) at a given dose for three consecutive weeks, and giving an equal amount of solvent animals in a solvent control group. Measuring diameters of the xenograft twice a week throughout the experiment, and weighing the mice were at the same time.
(§4) The calculation formula of tumor volume (TV) is: TV=½×a×b^2, wherein a and b represent length and width, respectively. The relative tumor volume (RTV) is calculated based on the measured results using the formula: RTV=Vt/V0, wherein V0 is the tumor volume measured at the time of dosing in separate cages (i.e., Day 0) and Vt is the tumor volume at each measurement. The anti-tumor activity is evaluated by the following measures: 1) relative tumor proliferation rate T/C (%), which is calculated by the following formula: T/C (%)=(TRTV/CRTV)×100%, wherein TRTV: RTV of ae treatment group; CRTV: RTV of a negative control group; 2) inhibition rate of tumor volume growth GI %, which is calculated by the following formula: GI %=[1−(TVt−TV0)/(CVt−[…])]×100%, wherein TVt is the tumor volume at each measurement in the treatment group; TV0 is the tumor volume obtained at the time of dosing in separate cages in the treatment group; CVt is the tumor volume at each measurement in the control group; CV0 is the tumor volume obtained at the time of dosing in separate cages in the control group (specific data are shown in Table 4).

The test system of data set [5] is MV 4-11 tumor cell xenograft. The experiment in a line: Growth inhibition of xenograft in nude mice. It counts as in vivo. The note with it: orally, once daily, for 21 consecutive days.
Excerpt: as §3, §4

The test system of data set [6] is KYSE520 tumor cell xenograft. In words: Growth inhibition of xenograft in nude mice. The format is in vivo. The settings on record: orally, once daily, for 21 consecutive days.
Excerpt: as §3, §4

In data set [7] the test system is MV 4-11/KYSE520/NCI-H358 tumor cell xenografts. The experiment in a line: Xenograft study in nude mice: tolerance and westernblot assay of tumor tissues. The format is in vivo.
Excerpt: as §3

The next data set concerns the target CYP2C8 (Homo sapiens (Human), UniProt P10632). In words: biochemical. It counts as in vitro ADME.
The mark [8] stands for this setting: monkey, monkeys liver microsomes.

Sequence of CYP2C8 (P10632 whole entry): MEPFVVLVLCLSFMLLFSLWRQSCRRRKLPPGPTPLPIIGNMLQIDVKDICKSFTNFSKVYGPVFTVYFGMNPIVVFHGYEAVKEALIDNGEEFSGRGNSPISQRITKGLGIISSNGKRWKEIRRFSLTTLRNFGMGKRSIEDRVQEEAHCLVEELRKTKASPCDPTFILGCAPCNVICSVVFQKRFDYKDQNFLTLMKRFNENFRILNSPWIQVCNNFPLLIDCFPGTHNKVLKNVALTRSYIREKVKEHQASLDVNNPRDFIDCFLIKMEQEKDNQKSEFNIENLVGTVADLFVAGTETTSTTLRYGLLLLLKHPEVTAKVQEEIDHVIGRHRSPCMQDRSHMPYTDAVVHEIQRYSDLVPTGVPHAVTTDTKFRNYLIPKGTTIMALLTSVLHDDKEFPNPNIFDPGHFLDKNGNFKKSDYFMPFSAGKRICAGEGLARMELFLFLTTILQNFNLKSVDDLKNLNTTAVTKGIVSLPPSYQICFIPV
Sequence of PTP1B (P18031 whole entry, species assumed): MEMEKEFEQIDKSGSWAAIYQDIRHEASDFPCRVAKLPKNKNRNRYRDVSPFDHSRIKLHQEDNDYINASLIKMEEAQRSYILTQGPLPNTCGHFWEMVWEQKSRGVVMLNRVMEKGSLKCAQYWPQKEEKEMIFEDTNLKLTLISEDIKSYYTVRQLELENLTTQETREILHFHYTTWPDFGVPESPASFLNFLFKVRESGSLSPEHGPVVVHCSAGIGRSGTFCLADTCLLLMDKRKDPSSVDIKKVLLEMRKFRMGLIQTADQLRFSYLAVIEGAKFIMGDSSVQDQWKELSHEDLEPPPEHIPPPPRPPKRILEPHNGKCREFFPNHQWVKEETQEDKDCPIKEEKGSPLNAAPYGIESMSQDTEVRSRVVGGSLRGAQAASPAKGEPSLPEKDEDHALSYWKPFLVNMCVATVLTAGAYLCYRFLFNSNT
Sequence of SHP1 (P29350 whole entry): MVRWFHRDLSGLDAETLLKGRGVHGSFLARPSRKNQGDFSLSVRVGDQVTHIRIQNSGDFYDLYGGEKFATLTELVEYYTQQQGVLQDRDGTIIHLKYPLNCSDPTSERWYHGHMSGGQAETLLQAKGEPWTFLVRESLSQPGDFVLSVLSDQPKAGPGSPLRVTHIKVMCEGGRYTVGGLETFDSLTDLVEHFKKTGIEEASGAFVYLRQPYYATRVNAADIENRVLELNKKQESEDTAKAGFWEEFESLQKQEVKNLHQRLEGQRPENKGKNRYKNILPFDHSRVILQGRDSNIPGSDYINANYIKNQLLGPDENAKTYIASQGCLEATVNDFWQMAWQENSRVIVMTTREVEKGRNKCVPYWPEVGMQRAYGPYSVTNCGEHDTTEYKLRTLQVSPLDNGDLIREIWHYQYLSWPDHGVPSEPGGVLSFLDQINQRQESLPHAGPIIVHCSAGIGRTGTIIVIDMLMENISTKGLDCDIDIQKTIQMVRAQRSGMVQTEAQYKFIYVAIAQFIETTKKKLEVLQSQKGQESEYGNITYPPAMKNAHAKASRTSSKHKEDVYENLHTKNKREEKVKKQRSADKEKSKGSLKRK

Regarding `Cc1nc(N2CCC3(CC2)Cc2ccccc2[C@H]3N)n2ccnc2c1Sc1ccnc(N)c1Cl` [Example 1, (S)-1′-(8-((2-amino-3-chloropyridin-4-yl)thio)-7-methylimidazo [1,2-c]pyrimidin-5-yl)-1,3-dihydrospiro [indene-2,4′-piperidine]-1-amine], the half-life at 1 μM in “in vitro” (dog, dogs liver microsomes) is above 60 min; in the data set “in vitro” (human liver microsomes), above 60 min; in “in vitro” (setting [8]) it was above 60 min; in “in vitro” (mouse, mice liver microsomes), above 60 min; in the data set “in vitro” (rat, rats liver microsomes) it was above 60 min. Moreover, the IC50 on SHP1 was above 500 nM; at PTP1B it was above 500 nM; in the data set on MOLM 13 (leukemia cells), below 100 nM; in data set [1], below 100 nM; in data set [2], below 1000 nM; in data set [3] it was below 100 nM. Besides, the IC50 with SNU16 (gastric cancer) is below 1000 nM; in the data set on NCI-H 508 (lung cancer), below 100 nM; with H358 (lung cancer cells), below 100 nM; at CYP2C8, above 25 µM. In addition, the T/C in data set [4] (0.8 mg/kg) worked out at 39%; in [4] (2.5 mg/kg), 13%; in data set [5] (2 mg/kg) it was 28%; in data set [5] (5 mg/kg), 3.0%; in [6] (2 mg/kg), 30%; in [6] (6 mg/kg), 18%. In data set [7] (24 hours after the last dosing), the “inhibition of the signaling pathway in tumor tissues (westernblot)” value is recorded as “can still inhibit the signaling pathway in tumor tissues continuously 24 hours after the last dosing”. Also, the “tolerance of the experimental animals” value in data set [7] (nude mice with xenografts, oral dosing for three weeks) was “well tolerated”.

Turning to `Nc1nccc(Sc2c(N)nc(N3CCC4(CC3)Cc3ccccc3[C@H]4N)n3ccnc23)c1Cl` [Example 4, (S)-1′-(7-amino-8-((2-amino-3-chloropyridin-4-yl)thio)imidazo [1,2-c]pyrimidin-5-yl)-1,3-dihydrospiro [indene-2,4′-piperidine]-1-amine], the half-life at 1 μM in the data set “in vitro” (dog, dogs liver microsomes) was above 60 min; in the data set “in vitro” (human liver microsomes) it was above 60 min; in the data set “in vitro” (setting [8]), above 60 min; in the data set “in vitro” (mouse, mice liver microsomes) it was above 60 min; in the data set “in vitro” (rat, rats liver microsomes), above 60 min. Also, the IC50 at SHP1 was above 500 nM; on PTP1B it was above 500 nM; in the data set on MOLM 13 (leukemia cells), below 100 nM; in [1], below 100 nM; in data set [2] it was below 1000 nM; in data set [3], below 100 nM. Moreover, the IC50 is below 1000 nM in the data set on SNU16 (gastric cancer), below 100 nM in the data set on NCI-H 508 (lung cancer), below 100 nM in the data set with H358 (lung cancer cells) and above 25 µM against CYP2C8.
